Where two headings read alike, the source gives them in different places.
Test system: recombinant NL4-3 virus (Renilla luciferase) in MT-2 cells
Experiment: HIV cell culture assay (antiviral activity, luciferase readout in infected MT-2 cells)
Assay type: cell-based
Details: Renilla
Procedure, shortened: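 Nef-deleted NL4-3 carrying Renilla luciferase, produced by 293T transfection, used to infect MT-2 cells for 4–5 days with serial compound dilutions. Live-cell luciferase signal read as infection marker; EC50 from exponential median-effect equation.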

[1] = NL43, recombinant NL4-3 Renilla luciferase virus in MT-2 cells
[2] = NL43, read-out: Activity, antiviral activity class, recombinant NL4-3 Renilla luciferase virus in MT-2 cells

SMILES: Cc1ccccc1S(=O)(=O)NC(=O)N[C@@H](Cc1ccccc1C(N)=O)C(=O)N(C)c1ccc2c(c1)OCO2 [Example 66, (S)-2-(3-(benzo[d][1,3]dioxol-5-yl(methyl)amino)-3-oxo-2-(3-(o-tolylsulfonyl)ureido)propyl)benzamide]
- EC50 [1]: > 100000 nM

SMILES: Cc1ccccc1S(=O)(=O)NC(=O)N[C@@H](Cc1cc(F)cc(F)c1)C(=O)N(C)c1ccc2c(c1)OCO2 [Example 67, (S)—N-(benzo[d][1,3]dioxol-5-yl)-3-(3,5-difluorophenyl)-N-methyl-2-(3-(o-tolylsulfonyl)ureido)propanamide]
- EC50 [2]: 100 to 1000 nM

SMILES: Cc1ccccc1S(=O)(=O)NC(=O)N[C@@H](Cc1ccc(OCc2ccccc2)cc1)C(=O)N(C)c1ccc2c(c1)OCO2 [Example 68, (S)—N-(benzo[d][1,3]dioxol-5-yl)-3-(4-(benzyloxy)phenyl)-N-methyl-2-(3-(o-tolylsulfonyl)ureido)propanamide]
- EC50 [2]: 10000 to 100000 nM
- EC50 [1]: 16000 nM

SMILES: Cc1ccccc1S(=O)(=O)NC(=O)N[C@@H](Cc1ccc(-c2ccccc2)cc1)C(=O)N(C)c1ccc2c(c1)OCO2 [Example 69, (S)-3-([1,1′-biphenyl]-4-yl)-N-(benzo[d][1,3]dioxol-5-yl)-N-methyl-2-(3-(o-tolylsulfonyl)ureido)propanamide]
- EC50 [2]: 10000 to 100000 nM

SMILES: Cc1ccccc1S(=O)(=O)NC(=O)N[C@@H](Cc1ccccc1F)C(=O)N(C)c1ccc2c(c1)OCO2 [Example 70, (S)—N-(benzo[d][1,3]dioxol-5-yl)-3-(2-fluorophenyl)-N-methyl-2-(3-(o-tolylsulfonyl)ureido)propanamide]
- EC50 [2]: 100 to 1000 nM

SMILES: Cc1ccccc1S(=O)(=O)NC(=O)N[C@@H](Cc1cccc(C(F)(F)F)c1)C(=O)N(C)c1ccc2c(c1)OCO2 [Example 71, (S)—N-(benzo[d][1,3]dioxol-5-yl)-N-methyl-2-(3-(o-tolylsulfonyl)ureido)-3-(3-(trifluoromethyl)phenyl)propanamide]
- EC50 [2]: 100 to 1000 nM

SMILES: Cc1ccc(C[C@H](NC(=O)NS(=O)(=O)c2ccccc2C)C(=O)N(C)c2ccc3c(c2)OCO3)cc1 [Example 72, (S)—N-(benzo[d][1,3]dioxol-5-yl)-N-methyl-3-(p-tolyl)-2-(3-(o-tolylsulfonyl)ureido)propanamide]
- EC50 [2]: 100 to 1000 nM
- EC50 [1]: 580 nM

SMILES: CC(=O)Nc1ccc(C[C@H](NC(=O)NS(=O)(=O)c2ccccc2C)C(=O)N(C)c2ccc3c(c2)OCO3)cc1 [Example 73, (S)-3-(4-acetamidophenyl)-N-(benzo[d][1,3]dioxol-5-yl)-N-methyl-2-(3-(o-tolylsulfonyl)ureido)propanamide]
- EC50 [1]: > 100000 nM

SMILES: Cc1ccccc1S(=O)(=O)NC(=O)N[C@@H](Cc1ccc(Cl)cc1Cl)C(=O)N(C)c1ccc2c(c1)OCO2 [Example 74, (S)—N-(benzo[d][1,3]dioxol-5-yl)-3-(2,4-dichlorophenyl)-N-methyl-2-(3-(o-tolylsulfonyl)ureido)propanamide]
- EC50 [2]: 1000 to 10000 nM
- EC50 [1]: 3880 nM

SMILES: Cc1ccccc1S(=O)(=O)NC(=O)N[C@@H](Cc1cc(F)c(F)cc1F)C(=O)N(C)c1ccc2c(c1)OCO2 [Example 75, (S)—N-(benzo[d][1,3]dioxol-5-yl)-N-methyl-2-(3-(o-tolylsulfonyl)ureido)-3-(2,4,5-trifluorophenyl)propanamide]
- EC50 [2]: 100 to 1000 nM
- EC50 [1]: 290 nM

SMILES: Cc1ccccc1S(=O)(=O)NC(=O)N[C@@H](Cc1ccccc1Br)C(=O)N(C)c1ccc2c(c1)OCO2 [Example 76, (S)—N-(benzo[d][1,3]dioxol-5-yl)-3-(2-bromophenyl)-N-methyl-2-(3-(o-tolylsulfonyl)ureido)propanamide]
- EC50 [2]: 1000 to 10000 nM

SMILES: Cc1ccccc1S(=O)(=O)NC(=O)N[C@@H](Cc1ccccc1C#N)C(=O)N(C)c1ccc2c(c1)OCO2 [Example 77, (S)—N-(benzo[d][1,3]dioxol-5-yl)-3-(2-cyanophenyl)-N-methyl-2-(3-(o-tolylsulfonyl)ureido)propanamide]
- EC50 [2]: 1000 to 10000 nM

From patent publication US10035760B2, “Inhibitors of human immunodeficiency virus replication” (priority 2013, dated 2018)
